Literature values in publication PMC9329312, “Decoding kinase-adverse event associations for small molecule kinase inhibitors” (Nature Communications, 2022).
Like-named read-outs stand apart in the source and are kept apart here.

Conditions: ref FAERS

## CCOc1cc2ncc(C#N)c(Nc3ccc(OCc4ccccn4)c(Cl)c3)c2cc1NC(=O)/C=C/CN(C)C [neratinib]
  Pyrexia, % of Cases: 1.4%
  Quality of life decreased, % of Cases: 0.075%
  Radiation injury, % of Cases: 0.075%
  Rash erythematous, % of Cases: 0.3%
  Rash macular, % of Cases: 0.075%
  Rash papular, % of Cases: 0.075%
  Rash pruritic, % of Cases: 0.3%
  Rash pustular, % of Cases: 0.225%
  Rash vesicular, % of Cases: 0.075%
  Rash, % of Cases: 5.0%
  Raynaud's phenomenon, % of Cases: 0.075%
  Recall phenomenon, % of Cases: 0.075%
  Rectal haemorrhage, % of Cases: 0.5%
  Recurrent cancer, % of Cases: 0.075%
  Red blood cell count decreased, % of Cases: 0.225%
  Red blood cell sedimentation rate increased, % of Cases: 0.075%
  Reflux laryngitis, % of Cases: 0.15%
  Refraction disorder, % of Cases: 0.075%
  Renal disorder, % of Cases: 0.45%
  Renal failure, % of Cases: 0.6%
  Renal function test abnormal, % of Cases: 0.15%
  Renal impairment, % of Cases: 0.8%
  Renal mass, % of Cases: 0.075%
  Respiratory arrest, % of Cases: 0.075%
  Respiratory failure, % of Cases: 0.15%
  Restless legs syndrome, % of Cases: 0.075%
  Retching, % of Cases: 0.3%
  Retinal artery occlusion, % of Cases: 0.075%
  Retinal tear, % of Cases: 0.075%
  Rhinorrhoea, % of Cases: 0.75%
  Road traffic accident, % of Cases: 0.075%
  Rubber sensitivity, % of Cases: 0.075%
  Saliva altered, % of Cases: 0.075%
  Salivary gland cancer, % of Cases: 0.15%
  Salpingectomy, % of Cases: 0.075%
  Salpingo-oophorectomy bilateral, % of Cases: 0.075%
  Scab, % of Cases: 0.075%
  Seasonal allergy, % of Cases: 0.075%
  Seizure, % of Cases: 0.225%
  Sensation of foreign body, % of Cases: 0.15%
  Seroma, % of Cases: 0.075%
  Sinus disorder, % of Cases: 0.075%
  Sinus headache, % of Cases: 0.075%
  Sinus tachycardia, % of Cases: 0.075%
  Sinusitis, % of Cases: 0.15%
  Sjogren's syndrome, % of Cases: 0.075%
  Skin atrophy, % of Cases: 0.075%
  Skin burning sensation, % of Cases: 0.075%
  Skin discolouration, % of Cases: 0.225%
  Skin disorder, % of Cases: 0.075%
  Skin erosion, % of Cases: 0.075%
  Skin exfoliation, % of Cases: 0.8%
  Skin fissures, % of Cases: 0.9%
  Skin haemorrhage, % of Cases: 0.075%
  Skin irritation, % of Cases: 0.075%
  Skin odour abnormal, % of Cases: 0.075%
  Skin reaction, % of Cases: 0.075%
  Skin ulcer, % of Cases: 0.075%
  Sleep disorder, % of Cases: 0.15%
  Slow speech, % of Cases: 0.075%
  Sluggishness, % of Cases: 0.075%
  Small intestine adenocarcinoma, % of Cases: 0.075%
  Sneezing, % of Cases: 0.225%
  Snoring, % of Cases: 0.075%
  Somnolence, % of Cases: 1.5%
  Spinal pain, % of Cases: 0.075%
  Sputum retention, % of Cases: 0.075%
  Staphylococcal infection, % of Cases: 0.075%
  Stomatitis, % of Cases: 2.0%
  Stress fracture, % of Cases: 0.075%
  Stress, % of Cases: 0.3%
  Subclavian vein thrombosis, % of Cases: 0.075%
  Sunburn, % of Cases: 0.075%
  Surgery, % of Cases: 0.6%
  Swelling face, % of Cases: 0.225%
  Swelling, % of Cases: 0.15%
  Swollen tongue, % of Cases: 0.15%
  Syncope, % of Cases: 0.15%
  Tachycardia, % of Cases: 0.225%
  Taste disorder, % of Cases: 1.2%
  Temporomandibular joint syndrome, % of Cases: 0.075%
  Tenderness, % of Cases: 0.075%
  Tension headache, % of Cases: 0.075%
  Therapeutic product ineffective for unapproved indication, % of Cases: 0.075%
  Therapy cessation, % of Cases: 0.375%
  Therapy change, % of Cases: 0.225%
  Therapy interrupted, % of Cases: 0.15%
  Thirst, % of Cases: 0.375%
  Throat irritation, % of Cases: 0.075%
  Throat tightness, % of Cases: 0.075%
  Thrombocytopenia, % of Cases: 0.075%
  Thrombosis, % of Cases: 0.225%
  Thyroid cancer, % of Cases: 0.075%
  Thyroid mass, % of Cases: 0.075%
  Tongue discolouration, % of Cases: 0.075%
  Tongue discomfort, % of Cases: 0.075%
  Tongue erythema, % of Cases: 0.15%
  Tooth extraction, % of Cases: 0.075%
  Tooth fracture, % of Cases: 0.075%
  Tooth injury, % of Cases: 0.075%
  Toothache, % of Cases: 0.15%
  Toxicity to various agents, % of Cases: 0.075%
  Tracheal disorder, % of Cases: 0.075%
  Transaminases increased, % of Cases: 0.075%
  Transient ischaemic attack, % of Cases: 0.075%
  Transitional cell carcinoma metastatic, % of Cases: 0.075%
  Treatment noncompliance, % of Cases: 0.075%
  Tremor, % of Cases: 0.375%
  Trichorrhexis, % of Cases: 0.075%
  Tumour flare, % of Cases: 0.075%
  Tumour marker increased, % of Cases: 0.075%
  Tumour pain, % of Cases: 0.075%
  Tumour ulceration, % of Cases: 0.075%
  Underdose, % of Cases: 2.6%
  Upper limb fracture, % of Cases: 0.075%
  Upper respiratory tract infection, % of Cases: 0.375%
  Upper-airway cough syndrome, % of Cases: 0.075%
  Urinary retention, % of Cases: 0.075%
  Urinary tract discomfort, % of Cases: 0.075%
  Urinary tract infection, % of Cases: 2.1%
  Urine analysis abnormal, % of Cases: 0.075%
  Urine odour abnormal, % of Cases: 0.075%
  Urticaria, % of Cases: 0.375%
  Uterine cancer, % of Cases: 0.075%
  Uterine leiomyoma, % of Cases: 0.075%
  Vaginal discharge, % of Cases: 0.075%
  Vaginal haemorrhage, % of Cases: 0.225%
  Venous pressure jugular increased, % of Cases: 0.075%
  Vertigo positional, % of Cases: 0.075%
  Vertigo, % of Cases: 0.075%
  Viral infection, % of Cases: 0.15%
  Vision blurred, % of Cases: 0.375%
  Visual impairment, % of Cases: 0.225%
  Vitamin D decreased, % of Cases: 0.075%
  Vitiligo, % of Cases: 0.075%
  Vitreous floaters, % of Cases: 0.075%
  Volume blood decreased, % of Cases: 0.075%
  Vomiting projectile, % of Cases: 0.075%
  Vomiting, % of Cases: 13.8%
  Vulvovaginal burning sensation, % of Cases: 0.075%
  Vulvovaginal dryness, % of Cases: 0.075%
  Vulvovaginal pain, % of Cases: 0.075%
  Vulvovaginal pruritus, % of Cases: 0.15%
  Weight decreased, % of Cases: 4.9%
  Weight fluctuation, % of Cases: 0.075%
  Weight increased, % of Cases: 0.3%
  White blood cell count decreased, % of Cases: 0.7%
  White blood cell count increased, % of Cases: 0.15%
  Wound haemorrhage, % of Cases: 0.075%
  Wound, % of Cases: 0.075%
  Wrist fracture, % of Cases: 0.075%
  Wrong technique in product usage process, % of Cases: 0.075%
  Xeroderma, % of Cases: 0.075%
Listed as Neratinib
  Abdominal discomfort, % of Cases: 4.80%
  Abdominal pain upper, % of Cases: 6.00%
  Abdominal pain, % of Cases: 6.20%
  Constipation, % of Cases: 15.50%
  Death, % of Cases: 9.60%
  Decreased appetite, % of Cases: 11.90%
  Dehydration, % of Cases: 6.60%
  Diarrhoea, % of Cases: 61.80%
  Dizziness, % of Cases: 4.60%
  Dyspepsia, % of Cases: 4.40%
  Fatigue, % of Cases: 25.20%
  Headache, % of Cases: 5.40%
  Hospitalisation, % of Cases: 5.30%
  Muscle spasms, % of Cases: 4.20%
  Nausea, % of Cases: 29.70%
  Off label use, % of Cases: 11.60%
  Product dose omission issue, % of Cases: 7.80%
  Rash, % of Cases: 5.00%
  Vomiting, % of Cases: 13.80%
  Weight decreased, % of Cases: 4.90%
